The values that follow come from ChEMBL document CHEMBL5321219, “Selective degradation of cellular BRD3 and BRD4-L promoted by PROTAC molecules in six cancer cell lines” (Eur J Med Chem, 2023).

The target in experiment [1] is T1, Bromodomain-containing protein 3 (Homo sapiens, UniProt Q15059). Briefly: Binding affinity to recombinant human BRD3 BD1 (24 to 144 residues) assessed as inhibition constant by fluorescence polarization binding assay.
Experiment [2] deals with T1, Bromodomain-containing protein 3. Kind of experiment: Binding affinity to recombinant human BRD3 BD2 (306 to 417 residues) assessed as inhibition constant by fluorescence polarization binding assay. A general note: Polarisation of emitted light reports the rotation of a fluorescent probe.
The test system of experiment [3] is MM1.S. Kind of experiment: Antiproliferative activity against human MM1.S cells assessed as cell growth inhibition measured after 4 days by CellTitre-Glo assay. Format: functional, cell-based. The settings on record: 96 h.
Experiment [4] has as its system MV4-11. Briefly: Antiproliferative activity against human MV4-11 cells assessed as cell growth inhibition measured after 3 days by CellTitre-Glo assay. Format: functional, cell-based. Particulars: MV4-11, 72 h.
Experiment [5] addresses T2, Protein cereblon/Bromodomain-containing protein 4 (Homo sapiens) (UniProt O60885+Q96SW2). Briefly: PROTAC activity at CRBN/BRD4-L in human MM1.S cells assessed as induction of protein degradation at 2 nM measured after 24 hrs by Western blot analysis. The experiment is classed as cell-based.
Experiment [6] addresses T3, Protein cereblon/Bromodomain-containing protein 3 (Homo sapiens) (UniProt Q15059+Q96SW2). Briefly: PROTAC activity at CRBN/BRD3 in human MM1.S cells assessed as induction of protein degradation at 2 nM measured after 24 hrs by Western blot analysis. Format: cell-based. A general note: In western blotting, separated proteins are transferred to a membrane and probed.
The target of experiment [7] is Protein cereblon/Bromodomain-containing protein 2 (Homo sapiens) (UniProt P25440+Q96SW2). Briefly: PROTAC activity at CRBN/BRD2 in human MM1.S cells assessed as induction of protein degradation at 2 to 10 nM measured after 24 hrs by Western blot analysis. Format: cell-based. The settings on record: dose 2-10 nM.
Chain of Protein cereblon/Bromodomain-containing protein 2 (Homo sapiens) (P25440 whole entry, looked up): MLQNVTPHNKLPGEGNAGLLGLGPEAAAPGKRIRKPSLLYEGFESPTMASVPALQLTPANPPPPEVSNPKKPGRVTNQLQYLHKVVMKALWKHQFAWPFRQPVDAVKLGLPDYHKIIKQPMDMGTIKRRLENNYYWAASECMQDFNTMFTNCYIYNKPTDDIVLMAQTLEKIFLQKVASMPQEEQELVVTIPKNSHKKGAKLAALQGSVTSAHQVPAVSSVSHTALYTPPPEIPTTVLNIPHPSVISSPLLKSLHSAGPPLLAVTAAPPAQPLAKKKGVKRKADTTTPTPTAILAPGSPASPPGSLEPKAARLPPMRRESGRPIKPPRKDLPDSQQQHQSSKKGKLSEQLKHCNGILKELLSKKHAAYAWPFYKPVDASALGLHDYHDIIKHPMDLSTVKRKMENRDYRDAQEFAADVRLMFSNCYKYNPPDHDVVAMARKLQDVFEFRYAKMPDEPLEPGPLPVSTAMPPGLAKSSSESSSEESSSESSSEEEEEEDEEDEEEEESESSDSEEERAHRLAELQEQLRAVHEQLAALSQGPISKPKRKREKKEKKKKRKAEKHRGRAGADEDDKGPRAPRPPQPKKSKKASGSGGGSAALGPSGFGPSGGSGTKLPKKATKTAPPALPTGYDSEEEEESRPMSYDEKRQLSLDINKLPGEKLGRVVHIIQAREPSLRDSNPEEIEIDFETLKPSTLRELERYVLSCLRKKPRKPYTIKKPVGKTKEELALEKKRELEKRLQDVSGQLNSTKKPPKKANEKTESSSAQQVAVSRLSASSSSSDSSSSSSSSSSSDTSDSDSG
Chain of Protein cereblon/Bromodomain-containing protein 2 (Homo sapiens) (Q96SW2 whole entry, looked up): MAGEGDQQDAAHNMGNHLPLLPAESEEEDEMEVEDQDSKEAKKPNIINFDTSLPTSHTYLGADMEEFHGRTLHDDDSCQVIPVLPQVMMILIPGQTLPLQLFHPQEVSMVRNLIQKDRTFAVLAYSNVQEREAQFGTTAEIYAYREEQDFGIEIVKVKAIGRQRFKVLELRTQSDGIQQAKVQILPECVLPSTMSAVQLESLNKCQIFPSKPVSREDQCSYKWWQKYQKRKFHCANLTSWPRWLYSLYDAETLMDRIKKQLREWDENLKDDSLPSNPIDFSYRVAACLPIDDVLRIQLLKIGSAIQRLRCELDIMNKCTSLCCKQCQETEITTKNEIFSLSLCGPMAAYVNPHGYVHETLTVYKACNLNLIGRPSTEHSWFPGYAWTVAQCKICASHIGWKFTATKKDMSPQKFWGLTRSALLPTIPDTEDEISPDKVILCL
Experiment [8] concerns the target T3, Protein cereblon/Bromodomain-containing protein 3 (Homo sapiens). Briefly: PROTAC activity at CRBN/BRD3 in human MM1.S cells assessed as induction of protein degradation at 2 to 10 nM measured after 24 hrs by Western blot analysis. Format: cell-based. Particulars: dose 2-10 nM.
For experiment [9], the target named is T2, Protein cereblon/Bromodomain-containing protein 4 (Homo sapiens). Kind of experiment: PROTAC activity at CRBN/BRD4-L in human MM1.S cells assessed as induction of protein degradation at 2 to 10 nM measured after 24 hrs by Western blot analysis. Format: cell-based. The settings on record: dose 2-10 nM.
For experiment [10] the target is unchanged. Briefly: PROTAC activity at CRBN/BRD4-S in human MM1.S cells assessed as induction of protein degradation at 2 to 10 nM measured after 24 hrs by Western blot analysis. The experiment is classed as cell-based. Particulars: dose 2-10 nM.
Experiment [11] concerns MCF7. Briefly: Antiproliferative activity against human MCF7 cells assessed as cell growth inhibition measured after 4 days by CCK-8 assay. The settings on record: MCF7, 96 h. Format: functional, cell-based. In general terms: Formazan colour is commonly taken as a measure of viable cells.
Experiment [12] relates to HGC-27. Kind of experiment: Antiproliferative activity against human HGC-27 cells assessed as cell growth inhibition measured after 4 days by CCK-8 assay. The experiment is classed as functional, cell-based. The settings on record: HGC-27, 96 h.
For experiment [13], the system named is A549. Briefly: Antiproliferative activity against human A549 cells assessed as cell growth inhibition measured after 4 days by CCK-8 assay. Format: functional, cell-based. The settings on record: A549, 96 h.
Experiment [14] has as its system HeLa. Briefly: Antiproliferative activity against human HeLa cells assessed as cell growth inhibition measured after 4 days by CCK-8 assay. Format: functional, cell-based. Particulars: 96 h.
The subject of experiment [15] is HepG2. Briefly: Antiproliferative activity against human HepG2 cells assessed as cell growth inhibition measured after 4 days by CCK-8 assay. Format: functional, cell-based. The settings on record: HepG2, 96 h.

Structures are written as SMILES. pIC50, pKi: −log10 of the molar value. Active and inactive are the calls of the source. The calls are words filed in the database; no cut-off is given here.

T1 sequence (Q15059 whole entry, the tested form may be a part): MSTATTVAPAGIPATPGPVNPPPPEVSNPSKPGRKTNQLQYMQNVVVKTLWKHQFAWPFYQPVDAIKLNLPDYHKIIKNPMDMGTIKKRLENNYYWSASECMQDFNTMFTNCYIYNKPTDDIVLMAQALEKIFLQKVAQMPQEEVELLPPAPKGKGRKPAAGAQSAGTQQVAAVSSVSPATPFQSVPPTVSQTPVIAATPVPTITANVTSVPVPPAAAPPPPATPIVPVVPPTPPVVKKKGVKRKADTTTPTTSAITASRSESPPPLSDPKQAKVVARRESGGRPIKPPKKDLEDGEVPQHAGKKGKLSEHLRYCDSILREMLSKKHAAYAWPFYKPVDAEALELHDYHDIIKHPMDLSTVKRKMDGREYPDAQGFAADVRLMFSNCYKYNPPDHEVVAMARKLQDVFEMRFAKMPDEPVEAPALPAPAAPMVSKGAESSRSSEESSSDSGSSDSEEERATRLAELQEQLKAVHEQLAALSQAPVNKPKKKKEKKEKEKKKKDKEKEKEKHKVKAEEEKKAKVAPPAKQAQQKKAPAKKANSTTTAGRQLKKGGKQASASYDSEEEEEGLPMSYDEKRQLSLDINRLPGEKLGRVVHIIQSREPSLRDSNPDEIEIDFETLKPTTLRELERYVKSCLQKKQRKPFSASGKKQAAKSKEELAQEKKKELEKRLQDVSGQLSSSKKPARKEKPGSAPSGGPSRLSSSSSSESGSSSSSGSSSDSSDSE
T3 sequence (Q15059 2-726 limits assumed): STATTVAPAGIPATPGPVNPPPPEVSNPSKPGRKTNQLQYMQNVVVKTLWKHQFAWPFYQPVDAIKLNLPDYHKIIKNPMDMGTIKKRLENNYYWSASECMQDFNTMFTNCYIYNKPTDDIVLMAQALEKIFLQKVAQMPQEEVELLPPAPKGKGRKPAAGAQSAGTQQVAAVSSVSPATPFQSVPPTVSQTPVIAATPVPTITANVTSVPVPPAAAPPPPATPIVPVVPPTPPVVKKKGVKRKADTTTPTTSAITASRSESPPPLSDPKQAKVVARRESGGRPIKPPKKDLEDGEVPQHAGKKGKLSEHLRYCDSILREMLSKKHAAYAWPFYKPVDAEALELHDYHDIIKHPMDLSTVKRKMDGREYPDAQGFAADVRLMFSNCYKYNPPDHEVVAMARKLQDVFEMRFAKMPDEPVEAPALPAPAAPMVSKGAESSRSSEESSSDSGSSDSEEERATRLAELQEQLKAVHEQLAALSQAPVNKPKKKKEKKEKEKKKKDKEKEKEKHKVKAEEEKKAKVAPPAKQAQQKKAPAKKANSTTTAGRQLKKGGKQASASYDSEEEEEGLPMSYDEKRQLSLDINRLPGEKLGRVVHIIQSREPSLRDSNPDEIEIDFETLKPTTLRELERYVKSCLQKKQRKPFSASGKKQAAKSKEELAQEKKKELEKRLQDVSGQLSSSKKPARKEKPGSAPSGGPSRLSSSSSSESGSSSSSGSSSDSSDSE
T3 sequence (Q96SW2 whole entry partner): as the sequence (Q96SW2 whole entry, looked up) above
T2 sequence (Q96SW2 whole entry, looked up, other chains not shown): as the sequence (Q96SW2 whole entry, looked up) above

As a reminder, the pKi is −log10 of the Ki, conventionally taken in molar units. In general, pIC50 refers to the negative decadic logarithm of the IC50, by convention in mol/L. Regarding `Cc1nnc2n1-c1ccc(-c3ccc(CNCCCCCc4cccc5c4CN(C4CCC(=O)NC4=O)C5=O)cc3)cc1C(Nc1ccc(Cl)cc1)CC2` (stereo not given), the pKi is 7.81 in experiment [1] and 8.27 in experiment [2]. For the same molecule, the results for the pIC50 in experiment [3] and in [4] were 6.09 and 6.63, respectively. Further, the outcome in experiment [5] and in [6] was Active.

Consider `Cc1nnc2n1-c1ccc(-c3ccc(CNCCCCCCc4cccc5c4CN(C4CCC(=O)NC4=O)C5=O)cc3)cc1C(Nc1ccc(Cl)cc1)CC2` (stereo not given), for which the pKi in experiment [1] is 8.17; in experiment [2] it was 8.67. The pIC50 was 7.50 in [3] and 9.40 in [4]. The outcome in [5] and in experiment [6] was Active.

Take `Cc1nnc2n1-c1ccc(-c3ccc(CNCC#Cc4cccc5c4CN(C4CCC(=O)NC4=O)C5=O)cc3)cc1C(Nc1ccc(Cl)cc1)CC2` (stereo not given): the pKi was 7.61 in [1] and 8.32 in experiment [2]. Besides, the pIC50 was 5.58 in experiment [3] and 6.16 in experiment [4].

Regarding `Cc1nnc2n1-c1ccc(-c3ccc(CNCCC#Cc4cccc5c4CN(C4CCC(=O)NC4=O)C5=O)cc3)cc1C(Nc1ccc(Cl)cc1)CC2` (stereo not given), the values for the pKi in experiment [1] and in [2] were 7.65 and 8.24, respectively. Moreover, the pIC50 is 5.47 in experiment [3] and 5.81 in experiment [4].

In the case of `Cc1nnc2n1-c1ccc(-c3cnn(CC(=O)NCCCCC#Cc4cccc5c4CN(C4CCC(=O)NC4=O)C5=O)c3)cc1C(Nc1ccc(Cl)cc1)CC2` (stereo not given), the pKi was 7.53 in [1] and 8.18 in [2]. Also, the results for the pIC50 in [3] and in experiment [4] were 5.27 and 6.27, respectively. The outcome in experiment [7], in experiment [8], in experiment [9] and in experiment [10] was inactive.

With `CNCc1ccc(-c2ccc3c(c2)C(Nc2ccc(Cl)cc2)CCc2nnc(C)n2-3)cc1` (stereo not given), the pKi is 6.57 in experiment [1] and 7.33 in experiment [2]. Also, the pIC50 is 5.42 in [3] and 5.91 in experiment [4].

Consider `Cc1nnc2n1-c1ccc(-c3cnn(CC(=O)NCCCC#Cc4cccc5c4CN(C4CCC(=O)NC4=O)C5=O)c3)cc1C(Nc1ccc(Cl)cc1)CC2` (stereo not given), for which the pKi in [1] was 7.42; in [2] it was 8.30. Moreover, the pIC50 was 5.09 in [3] and 5.53 in experiment [4]. For the same molecule, the outcome in experiment [7], in [8], in experiment [9] and in [10] was inactive.

On to `Cc1nnc2n1-c1ccc(-c3cnn(CC(=O)NCCCCCC#Cc4cccc5c4CN(C4CCC(=O)NC4=O)C5=O)c3)cc1C(Nc1ccc(Cl)cc1)CC2` (stereo not given), for which the pKi in experiment [1] was 7.48; in [2], 8.20. Besides, the pIC50 in experiment [3] was 5.80; in [4] it was 6.75. Further, the result in experiment [7], in experiment [8], in [9] and in experiment [10] was inactive.

In the case of `Cc1nnc2n1-c1ccc(-c3ccc(CNCCCC#Cc4cccc5c4CN(C4CCC(=O)NC4=O)C5=O)cc3)cc1C(Nc1ccc(Cl)cc1)CC2` (stereo not given), the figures for the pKi in experiment [1] and in experiment [2] were 7.32 and 8.30, respectively. The pIC50 in experiment [3] is 5.88; in [4], 6.19.

As for `Cc1nnc2n1-c1ccc(-c3ccc(CNCCCCC#Cc4cccc5c4CN(C4CCC(=O)NC4=O)C5=O)cc3)cc1C(Nc1ccc(Cl)cc1)CC2` (stereo not given), the pKi is 7.92 in experiment [1] and 8.33 in [2]. The pIC50 in experiment [3] was 6.80; in experiment [4] it was 7.15.

For `Cc1nnc2n1-c1ccc(-c3ccc(CNCCCCc4cccc5c4CN(C4CCC(=O)N(C)C4=O)C5=O)cc3)cc1C(Nc1ccc(Cl)cc1)CC2` (stereo not given), the pKi in experiment [1] was 7.88; in [2], 8.65. Moreover, the pIC50 in experiment [3] is 5.58; in [4] it was 6.23; in experiment [11], 5.32; in [12], 5.22; in experiment [13], 5.07; in experiment [14], 5.49. For the same molecule, the pIC50 in experiment [15] was 5.12.

On to `Cc1nnc2n1-c1ccc(-c3ccc(CNCCCCCC#Cc4cccc5c4CN(C4CCC(=O)NC4=O)C5=O)cc3)cc1C(Nc1ccc(Cl)cc1)CC2` (stereo not given), for which the pKi in [1] was 7.82; in experiment [2], 8.23. Moreover, the results for the pIC50 in experiment [3] and in experiment [4] were 6.81 and 7.70, respectively. In addition, the outcome in experiment [5] and in experiment [6] was Active.

As to `Cc1nnc2n1-c1ccc(-c3ccc(CNCCCc4cccc5c4CN(C4CCC(=O)NC4=O)C5=O)cc3)cc1C(Nc1ccc(Cl)cc1)CC2` (stereo not given), the pKi in experiment [1] is 7.73; in experiment [2], 8.61. Moreover, the pIC50 was 5.55 in [3] and 5.99 in experiment [4]. Further, the result in experiment [7], in [8], in experiment [9] and in experiment [10] was inactive.

As for `Cc1nnc2n1-c1ccc(-c3ccc(CNCCCCCCCc4cccc5c4CN(C4CCC(=O)NC4=O)C5=O)cc3)cc1C(Nc1ccc(Cl)cc1)CC2` (stereo not given), the pKi in experiment [1] is 8.10; in [2] it was 8.65. For the same molecule, the pIC50 in [3] was 7.56; in experiment [4] it was 9.12. Further, the result in [5] and in [6] was Active.
